Measured values as given in ChEMBL document CHEMBL1158123, “Rubrisandrins A and B, lignans and related anti-HIV compounds from Schisandra rubriflora” (J Nat Prod, 2006).
The source made the active and inactive calls. The calls are words filed in the database; no cut-off is given here.

Legend:
[1] = Therapeutic index, ratio of IC50 for human H9 cells to EC50 for HIV1 3B; assay type: cell-based; details: read-out: Ratio IC50/EC50
[2] = tested on: H9; assay: Cytotoxicity against human H9 cells after 4 days; assay type: cell-based; details: H9, 96 h
[3] = tested on: Human immunodeficiency virus 1; assay: Antiviral activity against HIV1 3B in H9 cells after 4 days by p24-antigen ELISA; assay type: functional, organism-based; details: for EC50: Human immunodeficiency virus 1, 3B, H9, 96 h

| Structure (SMILES) | selectivity ratio [1] | IC50 [2] | EC50 [3] | Activity [3] |
| --- | --- | --- | --- | --- |
| COc1cc2c(c(OC)c1OC)-c1c(cc3c(c1O)OCO3)C[C@H](C)[C@H](C)C2 | 19.4 | 47.1 µM | 2.4 µM | – |
| COc1cc2c(c(O)c1OC)-c1c(cc3c(c1OC)OCO3)C[C@H](C)[C@H](C)C2 (racemic) | > 68 | 44.5 µM | < 0.65 µM | – |
| C/C=C(/C)C(=O)O[C@@H]1c2cc(OC)c(OC)c(OC)c2-c2c(cc3c(c2OC)OCO3)C[C@H](C)[C@@]1(C)O [ANGELOYLGOMISIN P] | – | > 49 µM | – | inactive |
| COc1cc2c(c(OC)c1OC)-c1c(cc(OC)c(OC)c1OC)C[C@H](C)[C@@H](C)C2 [DEOXYSCHISANDRIN] | – | > 60 µM | – | inactive |
| COc1cc2c(c(O)c1OC)-c1c(cc(OC)c(OC)c1OC)C[C@@H](C)[C@@H](C)C2 [SCHISANHENOL] | 7.4 | 42 µM | 5.7 µM | – |
| C/C=C(/C)C(=O)O[C@H]1c2cc(OC)c(OC)c(OC)c2-c2c(cc3c(c2OC)OCO3)C[C@H](C)[C@]1(C)O [SCHISANTHERIN B] | 1.2 | > 49 µM | 40 µM | – |
| COc1cc2c(c(OC)c1OC)-c1c(cc(OC)c(OC)c1OC)C[C@](C)(O)[C@@H](C)C2 [SCHIZANDRIN] | – | > 58 µM | – | inactive |
| C/C=C(\C)C(=O)O[C@@H]1c2cc(OC)c(OC)c(OC)c2-c2c(cc3c(c2OC)OCO3)C[C@H](C)[C@@]1(C)O [TIGLOYLGOMISIN P] | 1.3 | > 49 µM | 37 µM | – |
| Cc1cn([C@H]2C[C@H](N=[N+]=[N-])[C@@H](CO)O2)c(=O)[nH]c1=O [ZIDOVUDINE] | – | – | 0.023 µM | – |
